Converted amounts (≈) assume the structure as drawn. “And” between values parts separate entries of the source, which are not always exact repeats. Identical values can stand only once. “Also recorded” adds a separate entry of the source. Counter-ions that a name gives are not always drawn. Like-named read-outs stand apart in the source and are kept apart here.
Columns and labels:
[1] = Measurement of solubility in water by liquid chromatography; format: physicochemical; conditions: for solubility at 12 h: thermodynamic from solid; for solubility at 12 h / Solubility in water: in water, saturated solution shaken 12 hrs at 30° C., HPLC; for Solubility in water compared to SIPI-409 and SIPI-409 hydrochloride: in words
Description: Solubility of SIPI-409 and of the salt derivatives thereof in water was measured by liquid chromatography.
Main steps: preparing SIPI-409 standards at the concentrations of 5 ? g/mL, 10 ? g/mL, 50 ? g/mL, 100 ? g/mL, 200 ? g/mL and establishing the standard curve of these preparations.
Chromatography Conditions:
Chromatography column: Phenomenex Luna 5u C18(2) 100 A 4.6×200 mm
Detection wave-length: 210 nm
Mobile phase: acetonitrile/phosphate buffer (0.68 g/L monopotassium phosphate, pH was adjusted to 3.0 using triethylamine)=68/32
Column temperature: 30° C.
Load volume: 10 ? L
Residence time: around 6.3 min
Sample treatment: the test samples were prepared into saturated solutions in water (suspensions) and shaken for 12 hrs at 30° C., which were further ultrasonicated for 30 s, followed by filtration and preparation of serial dilutions as appropriate, which were then analyzed by HPLC.

[2] = Temperature stability investigation (60° C. oven, XRPD); format: physicochemical; conditions: oven at 60° C., XRPD on day 0, 5, 10, 20 and 30
Description: Phosphate, nicotinate, glycolate, oxalate, orotate, benzenesulfonate and sulfate of SIPI-409 were placed in an oven at 60° C. XRPD measurements were carried out on samples taken out on day 0, 5, 10, 20 and 30.

[3] = Humidity stability investigation (92.5% RH, XRPD); format: physicochemical; conditions: 92.5% RH (saturated KNO3), XRPD on day 0, 5, 10, 20 and 30
Description: The phosphate, nicotinate, glycolate, oxalate, orotate, benzenesulfonate and sulfate of SIPI-409 were kept in a 92.5% RH (saturated KNO3) atomosphere. XRPD measurements were carried out on samples taken out on day 0, 5, 10, 20 and 30.

[4] = Light stability investigation (light incubator, XRPD); format: physicochemical
Description: The phosphate, nicotinate, glycolate, oxalate, orotate, benzenesulfonate and sulfate of SIPI-409 were placed in a light incubator. XRPD measurements were carried out on samples taken out on day 0, 5, 10, 20 and 30.

[5] = Hygroscopicity investigation (dynamic vapor sorption); format: physicochemical; conditions: dynamic vapor sorption analyzer
From the text: Hygroscopicity was further investigated by placing the phosphate, nicotinate, glycolate, oxalate, orotate, benzenesulfonate and sulfate of SIPI-409 in a dynamic vapor sorption (DVS) analyzer.

[6] = Pharmacokinetic study, single oral dose in SD rats (LC-MS/MS of plasma); format: in vivo
Description: SIPI-409 hydrochloride and SIPI-409 phosphate were administrated peros (PO), and were studied on in vivo pharmacokinetic parameters and bioavailability in SD rats. Concentrations of SIPI-409 hydrochloride and SIPI-409 phosphate in plasma were measured at intervals using Liquid Chromatography-Mass Spectrometry-Mass Spectrometry assay.
The obtained plasma concentration data were processed using the pharmacokinetic processing software WinNonlin 5.2 to calculate the relevant pharmacokinetic parameters according to non-compartmental model.

[7] = Preliminary pharmacokinetic studies (background); format: in vivo, SD rats; conditions: for bioavailability: rat, plasma, oral administration, SD rats
From the text: This can be explained by the excessively low solubility of the salt.

[8] = Pharmacokinetics after intravenous administration in SD rats; format: in vivo; conditions: α-crystalline form, compared with SIPI-409 hydrochloride
[9] = XRPD on day 0, 5, 10, 20 and 30
[10] = PO 10 mg/kg (based on SIPI-409), single dose, 10 mg/kg

Compound | Stability 60° C. [2] | Stability 92.5% RH [3] | Stability Light [4, 9] | DVS Max Hygroscopicity [5] [%] | Solubility in water [1] [µg/mL] | Solubility in water compared to SIPI-409 and SIPI-409 hydrochloride [1] | further results
COc1cc2c(cc1OCc1ccccc1)C(Cc1cccc(NS(C)(=O)=O)c1)NCC2 (racemic) [SIPI-409 Malate, 1-(3-methanesulfonamidobenzyl)-6-methoxy,7-benzyloxy-1,2,3,4-tetrahydroisoquinoline] |  |  |  |  |  |  | solubility at 12 h ([1]; water, 30 °C, water, read-out: Solubility): 650 µM; solubility at 12 h ([1]; water, 30 °C, water, read-out: Solubility in water): 380 µg/mL
COc1cc2c(cc1OCc1ccccc1)C(Cc1cccc(NS(C)(=O)=O)c1)NCC2 (stereo not shown) [SIPI-409 Benzenesulfonate, 1-(3-methanesulfonamidobenzyl)-6-methoxy,7-benzyloxy-1,2,3,4-tetrahydroisoquinoline] | Stable | Hygroscopic | Stable | 4.5 |  |  | solubility at 12 h ([1]; read-out: Solubility): 3210 µM; solubility at 12 h ([1]; read-out: Solubility in water): 1960 µg/mL
COc1cc2c(cc1OCc1ccccc1)C(Cc1cccc(NS(C)(=O)=O)c1)NCC2 (stereo not shown) [SIPI-409 Ethionate, 1-(3-methanesulfonamidobenzyl)-6-methoxy,7-benzyloxy-1,2,3,4-tetrahydroisoquinoline] |  |  |  |  | 440 (≈ 972 µM) |  | 
COc1cc2c(cc1OCc1ccccc1)C(Cc1cccc(NS(C)(=O)=O)c1)NCC2 (stereo not shown) [SIPI-409 Fumarate, 1-(3-methanesulfonamidobenzyl)-6-methoxy,7-benzyloxy-1,2,3,4-tetrahydroisoquinoline] |  |  |  |  | 120 |  | 
COc1cc2c(cc1OCc1ccccc1)C(Cc1cccc(NS(C)(=O)=O)c1)NCC2 (stereo not shown) [SIPI-409 Glycolate, 1-(3-methanesulfonamidobenzyl)-6-methoxy,7-benzyloxy-1,2,3,4-tetrahydroisoquinoline] | Stable | Stable | Stable | 0.8 | 3210 (≈ 7090 µM) | significantly increased solubility in water | 
COc1cc2c(cc1OCc1ccccc1)C(Cc1cccc(NS(C)(=O)=O)c1)NCC2 (stereo not shown) [SIPI-409 Hydrobromate, 1-(3-methanesulfonamidobenzyl)-6-methoxy,7-benzyloxy-1,2,3,4-tetrahydroisoquinoline] |  |  |  |  | 440 (≈ 972 µM) |  | 
COc1cc2c(cc1OCc1ccccc1)C(Cc1cccc(NS(C)(=O)=O)c1)NCC2 (stereo not shown) [SIPI-409 Hydrochloride, 1-(3-methanesulfonamidobenzyl)-6-methoxy,7-benzyloxy-1,2,3,4-tetrahydroisoquinoline, reference compound] |  |  |  |  | 510 |  | Tmax ([6]; PO 10 mg/kg (based on SIPI-409), single dose): 0.33 h; AUC(0-t) [6, 10]: 482.88 ng·h/mL; AUC(0-∞) [6, 10]: 503.82 ng·h/mL; Cmax [6, 10]: 191.96 ng/mL; F (bioavailability) [6, 10]: 24.63%; t1/2 [6, 10]: 1.8 h; t1/2 of injection ([7]; injection, compared with Sotalol): close to that of Sotalol; bioavailability [7]: 24%
COc1cc2c(cc1OCc1ccccc1)C(Cc1cccc(NS(C)(=O)=O)c1)NCC2 (stereo not shown) [SIPI-409 Nicotinate, 1-(3-methanesulfonamidobenzyl)-6-methoxy,7-benzyloxy-1,2,3,4-tetrahydroisoquinoline] | less stable against heat and degraded since day 5; also recorded: Instable | Hygroscopic | Stable | 4.5 | 4260 (≈ 9410 µM) | significantly increased solubility in water | 
COc1cc2c(cc1OCc1ccccc1)C(Cc1cccc(NS(C)(=O)=O)c1)NCC2 (stereo not shown) [SIPI-409 Orotate, 1-(3-methanesulfonamidobenzyl)-6-methoxy,7-benzyloxy-1,2,3,4-tetrahydroisoquinoline] | Stable | Stable | Stable | 1.1 | 1930 (≈ 4260 µM) | significantly increased solubility in water | 
COc1cc2c(cc1OCc1ccccc1)C(Cc1cccc(NS(C)(=O)=O)c1)NCC2 (stereo not shown) [SIPI-409 Oxalate, 1-(3-methanesulfonamidobenzyl)-6-methoxy,7-benzyloxy-1,2,3,4-tetrahydroisoquinoline] | Stable | Hygroscopic | Stable | 9.5 | 3520 | significantly increased solubility in water | 
COc1cc2c(cc1OCc1ccccc1)C(Cc1cccc(NS(C)(=O)=O)c1)NCC2 (stereo not shown) [SIPI-409 Phosphate, 1-(3-methanesulfonamidobenzyl)-6-methoxy,7-benzyloxy-1,2,3,4-tetrahydroisoquinoline] |  |  |  |  | 9690 | significantly increased solubility in water | AUC(0-t) [6, 10]: 1366.89 ng·h/mL; AUC(0-∞) [6, 10]: 1437.93 ng·h/mL; F (bioavailability) [6, 10]: 79% and 79.33%; half-life ([6]; SD, rat, plasma, po, 10 mg/kg, PO 10 mg/kg (based on SIPI-409), single dose): 2.66 h; Cmax ([6]; SD, rat, plasma, po, 10 mg/kg, PO 10 mg/kg (based on SIPI-409), single dose, read-out: Cmax): 376 ng/mL; MRT inf ([6]; SD, rat, plasma, po, 10 mg/kg, PO 10 mg/kg (based on SIPI-409), single dose, read-out: MRT(0-∞)): 4.23 h; Increase of bioavailability compared to SIPI-409 hydrochloride ([6]; oral administration): 329%; Tmax ([6]; rat, plasma, PO 10 mg/kg (based on SIPI-409), single dose, read-out: Tmax): 0.33 h; Pharmacokinetic parameters after intravenous administration [8]: substantially comparable to SIPI-409 hydrochloride; Stability 60° C. ([2]; listed as SIPI-409 phosphate): satisfactory stabilities; Stability 60° C. ([2]; listed as phosphate): Stable; Stability 92.5% RH ([3]; listed as SIPI-409 phosphate): satisfactory stabilities; Stability 92.5% RH ([3]; listed as phosphate): Stable; Stability Light ([4]; XRPD on day 0, 5, 10, 20 and 30, listed as SIPI-409 phosphate): satisfactory stabilities; Stability Light ([4]; XRPD on day 0, 5, 10, 20 and 30, listed as phosphate): Stable; DVS Max Hygroscopicity ([5]; listed as SIPI-409 phosphate): 0.7%; DVS Max Hygroscopicity ([5]; listed as phosphate): 0.7%
COc1cc2c(cc1OCc1ccccc1)C(Cc1cccc(NS(C)(=O)=O)c1)NCC2 (stereo not shown) [SIPI-409 Succinate, 1-(3-methanesulfonamidobenzyl)-6-methoxy,7-benzyloxy-1,2,3,4-tetrahydroisoquinoline] |  |  |  |  | 160 |  | 
COc1cc2c(cc1OCc1ccccc1)C(Cc1cccc(NS(C)(=O)=O)c1)NCC2 (stereo not shown) [SIPI-409 Sulfate, 1-(3-methanesulfonamidobenzyl)-6-methoxy,7-benzyloxy-1,2,3,4-tetrahydroisoquinoline] | Stable | Hygroscopic | Stable | 5.2 | 5760 | significantly increased solubility in water | 
COc1cc2c(cc1OCc1ccccc1)C(Cc1cccc(NS(C)(=O)=O)c1)NCC2 (stereo not shown) [SIPI-409 Tartarate, 1-(3-methanesulfonamidobenzyl)-6-methoxy,7-benzyloxy-1,2,3,4-tetrahydroisoquinoline] |  |  |  |  | 220 (≈ 486 µM) |  | 
COc1cc2c(cc1OCc1ccccc1)C(Cc1cccc(NS(C)(=O)=O)c1)NCC2 (stereo not shown) [SIPI-409, 1-(3-methanesulfonamidobenzyl)-6-methoxy,7-benzyloxy-1,2,3,4-tetrahydroisoquinoline, reference compound] |  |  |  |  | 70 (≈ 155 µM) |  | 
CC(C)NCC(O)c1ccc(NS(C)(=O)=O)cc1 (stereo not shown) [Sotalol] |  |  |  |  |  |  | bioavailability [7]: 70%
